Key:
[1] = tested on: EGFR Del19/T790M/C797S (H1975-clone #28); experiment: EGFR degradation HTRF assay, H1975-clone #28 DTC cells; assay type: cell-based; conditions: H1975 # 28 DTC cells; for DC50: EGFR degradation, IC50 (DC50) from curve fit, read-out: DC50(nM) H1975 # 28 DTC; for Dmax (%) H1975 # 28 DTC: maximum percentage of inhibition (degradation)
Outline: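 Cells were dosed on day 2 with an 8-point, 5-fold dilution series starting at 10 uM final and incubated 16h at 37° C. After lysis for 1 hour, HTRF antibodies were added overnight at room temperature and the plate was read at 665/620 nm. Degradation was normalised to DMSO wells and fitted for DC50 and Dmax.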

[2] = molecular target: T1, EGFR L858R/T790M/C797S (BaF3-LTC cells) (Homo sapiens, UniProt P00533, C797S/L858R/T790M); experiment: EGFR degradation HTRF assay, BaF3-LTC cells; assay type: cell-based; conditions: BaF3-LTC cells; for DC50: EGFR degradation, IC50 (DC50) from curve fit, read-out: DC50(nM) BaF3-LTC; for Dmax: maximum percentage of inhibition (degradation), read-out: Dmax (%) BaF3-LTC
T1 construct: expressed in transfected cells; host or cells: BaF3
Outline: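 Cells treated 16 h at 37 °C, 5% CO2 in medium with 0.2% DMSO; top final concentration 10 uM, 5-fold dilution, 8 doses. Lysates read by HTRF (665/620 nm); degradation % versus DMSO high control, DC50 from four-parameter fit, Dmax as maximal degradation.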

T1 sequence (P00533 25-1210 T790M/C797S/L858R): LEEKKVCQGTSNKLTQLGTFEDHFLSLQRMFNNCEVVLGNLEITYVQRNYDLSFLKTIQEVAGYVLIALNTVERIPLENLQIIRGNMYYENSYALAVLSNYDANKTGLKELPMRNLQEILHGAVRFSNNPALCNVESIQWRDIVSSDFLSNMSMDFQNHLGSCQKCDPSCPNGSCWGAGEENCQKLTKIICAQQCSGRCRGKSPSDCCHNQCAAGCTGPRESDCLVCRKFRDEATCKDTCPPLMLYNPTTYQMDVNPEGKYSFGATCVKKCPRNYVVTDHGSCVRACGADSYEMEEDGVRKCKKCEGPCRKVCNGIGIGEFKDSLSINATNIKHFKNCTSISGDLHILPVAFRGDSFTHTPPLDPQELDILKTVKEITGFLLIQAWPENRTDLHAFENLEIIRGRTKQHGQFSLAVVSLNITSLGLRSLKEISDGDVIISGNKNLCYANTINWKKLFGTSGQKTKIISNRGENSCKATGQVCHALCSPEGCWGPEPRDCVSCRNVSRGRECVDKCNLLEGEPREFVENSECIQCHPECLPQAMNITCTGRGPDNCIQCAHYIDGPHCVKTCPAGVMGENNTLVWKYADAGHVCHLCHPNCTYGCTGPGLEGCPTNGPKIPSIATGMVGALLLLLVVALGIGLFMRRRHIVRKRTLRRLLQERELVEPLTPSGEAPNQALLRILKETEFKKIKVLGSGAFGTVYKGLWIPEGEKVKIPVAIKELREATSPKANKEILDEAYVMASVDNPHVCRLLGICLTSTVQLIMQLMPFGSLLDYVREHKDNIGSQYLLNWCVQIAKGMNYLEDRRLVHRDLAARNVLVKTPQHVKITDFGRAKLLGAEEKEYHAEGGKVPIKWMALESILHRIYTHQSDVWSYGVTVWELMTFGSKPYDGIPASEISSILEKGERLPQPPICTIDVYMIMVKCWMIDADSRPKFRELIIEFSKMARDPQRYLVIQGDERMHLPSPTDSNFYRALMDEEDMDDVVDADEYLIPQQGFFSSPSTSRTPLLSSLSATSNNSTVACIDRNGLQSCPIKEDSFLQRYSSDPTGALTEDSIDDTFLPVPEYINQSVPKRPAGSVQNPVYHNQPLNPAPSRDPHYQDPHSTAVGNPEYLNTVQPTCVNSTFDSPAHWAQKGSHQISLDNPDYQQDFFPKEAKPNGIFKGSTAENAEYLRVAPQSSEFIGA

Structure (SMILES)	DC50 [1] [nM]	DC50 [2] [nM]	Dmax [2] [%]	Dmax (%) H1975 # 28 DTC [1] [%]
CCc1cc(Nc2ncc(C(F)(F)F)c(Nc3ccc4nc(C)ccc4c3P(C)(C)=O)n2)c(OC)cc1N1CCC(N2CCN(CCc3cc(F)c(C4CCC(=O)NC4=O)c(F)c3)CC2)CC1 (centres unmarked) [Example 689, 3-(4-(2-(4-(1-(4-((4-((5-(dimethylphosphoryl)-2-methylquinolin-6-yl)amino)-5-(trifluoromethyl)pyrimidin-2-yl)amino)-2-ethyl-5-methoxyphenyl)piperidin-4-yl)piperazin-1-yl)ethyl)-2,6-difluorophenyl)piperidine-2,6-dione]	3.03	15.4	85.1	72.37
CCc1cc(Nc2ncc(Br)c(Nc3ccc4nc(COC)ccc4c3P(C)(C)=O)n2)c(OC)cc1N1CCC(N2CCN(CCc3cc(F)c(C4CCC(=O)NC4=O)c(F)c3)CC2)CC1 (centres unmarked) [Example 690, 3-(4-(2-(4-(1-(4-((5-bromo-4-((5-(dimethylphosphoryl)-2-(methoxymethyl)quinolin-6-yl)amino)pyrimidin-2-yl)amino)-2-ethyl-5-methoxyphenyl)piperidin-4-yl)piperazin-1-yl)ethyl)-2,6-difluorophenyl)piperidine-2,6-dione]	0.689	6.66	90.6	77.81
CCc1ccc2c(P(C)(C)=O)c(Nc3nc(Nc4cc(CC)c(N5CCC(N6CCN(C[C@H]7C[C@H](N(C)c8cc(F)c(C9CCC(=O)NC9=O)c(F)c8)C7)CC6)CC5)cc4OC)ncc3Br)ccc2n1 (some centres unmarked) [Example 691, 3-(4-(((1r,3r)-3-((4-(1-(4-((5-bromo-4-((5-(dimethylphosphoryl)-2-ethylquinolin-6-yl)amino)pyrimidin-2-yl)amino)-2-ethyl-5-methoxyphenyl)piperidin-4-yl)piperazin-1-yl)methyl)cyclobutyl)(methyl)amino)-2,6-difluorophenyl)piperidine-2,6-dione]	3.3	24.6	93.4	71.66
CCc1cc(Nc2ncc(Br)c(Nc3ccc4nc(C)ccc4c3P(C)(C)=O)n2)c(OC)cc1N1CCC(N2CCN(CCC3CN(c4cccc5c4CN(C4CCC(=O)NC4=O)C5=O)C3)CC2)CC1 (centres unmarked) [Example 692, 3-(4-(3-(2-(4-(1-(4-((5-bromo-4-((5-(dimethylphosphoryl)-2-methylquinolin-6-yl)amino)pyrimidin-2-yl)amino)-2-ethyl-5-methoxyphenyl)piperidin-4-yl)piperazin-1-yl)ethyl)azetidin-1-yl)-1-oxoisoindolin-2-yl)piperidine-2,6-dione]	0.593	6.68	91.4	73
CCc1cc(Nc2ncc(Br)c(Nc3ccc4nc(C)ccc4c3P(C)(C)=O)n2)c(OC)cc1N1CCC(N2CCN(CCc3cc(F)c(C4CCC(=O)NC4=O)c(F)c3)[C@@H](C)C2)CC1 (stereo partly drawn) [Example 693, 3-(4-(2-((S)-4-(1-(4-((5-bromo-4-((5-(dimethylphosphoryl)-2-methylquinolin-6-yl)amino)pyrimidin-2-yl)amino)-2-ethyl-5-methoxyphenyl)piperidin-4-yl)-2-methylpiperazin-1-yl)ethyl)-2,6-difluorophenyl)piperidine-2,6-dione]	0.812	13.8	84.5	66.27
CCc1cc(Nc2ncc(Br)c(Nc3ccc4nc(C)ccc4c3P(C)(C)=O)n2)c(OC)cc1N1CCC(N2CCN(C3CCN(c4cc(F)c(C5CCC(=O)NC5=O)c(F)c4)CC3)CC2)CC1 (centres unmarked) [Example 694, 3-(4-(4-(4-(1-(4-((5-bromo-4-((5-(dimethylphosphoryl)-2-methylquinolin-6-yl)amino)pyrimidin-2-yl)amino)-2-ethyl-5-methoxyphenyl)piperidin-4-yl)piperazin-1-yl)piperidin-1-yl)-2,6-difluorophenyl)piperidine-2,6-dione]	0.986	16.1	92.2	68.67

The next lines start with results.

DC50 [1] [nM]	DC50 [2] [nM]	Dmax [2] [%]	Structure (SMILES)	Dmax (%) H1975 # 28 DTC [1] [%]
3.06	12.7	93.5	CCc1cc(Nc2ncc(Br)c(Nc3ccc4nc(C)ccc4c3P(C)(C)=O)n2)c(OC)cc1N1CCC(N2CCN(CCC3CCN(c4cc(F)c(C5CCC(=O)NC5=O)c(F)c4)CC3)C(=O)C2)CC1 (centres unmarked) [Example 695, 3-(4-(4-(2-(4-(1-(4-((5-bromo-4-((5-(dimethylphosphoryl)-2-methylquinolin-6-yl)amino)pyrimidin-2-yl)amino)-2-ethyl-5-methoxyphenyl)piperidin-4-yl)-2-oxopiperazin-1-yl)ethyl)piperidin-1-yl)-2,6-difluorophenyl)piperidine-2,6-dione]	68.81
0.647	4.53	92.3	CCc1cc(Nc2ncc(Br)c(Nc3ccc4nc(CO)ccc4c3P(C)(C)=O)n2)c(OC)cc1N1CCC(N2CCN(C(=O)[C@@H]3CCN(c4cc(F)c(C5CCC(=O)NC5=O)c(F)c4)C3)CC2)CC1 (stereo partly drawn) [Example 696, 3-(4-((R)-3-(4-(1-(4-((5-bromo-4-((5-(dimethylphosphoryl)-2-(hydroxymethyl)quinolin-6-yl)amino)pyrimidin-2-yl)amino)-2-ethyl-5-methoxyphenyl)piperidin-4-yl)piperazine-1-carbonyl)pyrrolidin-1-yl)-2,6-difluorophenyl)piperidine-2,6-dione]	75.49
1.19	9.65	94.1	CCc1cc(Nc2ncc(Br)c(Nc3ccc4nc(C)ccc4c3P(C)(C)=O)n2)c(OC)cc1N1CCC(N2CCN(C(=O)Cc3cccc4c3n(C)c(=O)n4C3CCC(=O)NC3=O)CC2)CC1 (centres unmarked) [Example 697, 3-(4-(2-(4-(1-(4-((5-bromo-4-((5-(dimethylphosphoryl)-2-methylquinolin-6-yl)amino)pyrimidin-2-yl)amino)-2-ethyl-5-methoxyphenyl)piperidin-4-yl)piperazin-1-yl)-2-oxoethyl)-3-methyl-2-oxo-2,3-dihydro-1H-benzo[d]imidazol-1-yl)piperidine-2,6-dione]	71.39
2.86	55.1	85.6	CCOc1cc(N2CCC(N3CCN(CCc4c(C(F)(F)F)ccc5c4oc(=O)n5C4CCC(=O)NC4=O)CC3)CC2)c(CC)cc1Nc1ncc(Br)c(Nc2ccc3nc(CC)ccc3c2P(C)(C)=O)n1 (centres unmarked) [Example 724, 3-(7-(2-(4-(1-(4-((5-bromo-4-((5-(dimethylphosphoryl)-2-ethylquinolin-6-yl)amino)pyrimidin-2-yl)amino)-5-ethoxy-2-ethylphenyl)piperidin-4-yl)piperazin-1-yl)ethyl)-2-oxo-6-(trifluoromethyl)benzo[d]oxazol-3(2H)-yl)piperidine-2,6-dione]	75.94
1.46	7.11	96.7	CCOc1cc(N2CCC(N3CCN(CCCc4cc(Cl)cc5c4oc(=O)n5C4CCC(=O)NC4=O)CC3)CC2)c(CC)cc1Nc1ncc(Br)c(Nc2ccc3nc(CC)ccc3c2P(C)(C)=O)n1 (centres unmarked) [Example 726, 3-(7-(3-(4-(1-(4-((5-bromo-4-((5-(dimethylphosphoryl)-2-ethylquinolin-6-yl)amino)pyrimidin-2-yl)amino)-5-ethoxy-2-ethylphenyl)piperidin-4-yl)piperazin-1-yl)propyl)-5-chloro-2-oxobenzo[d]oxazol-3(2H)-yl)piperidine-2,6-dione]	74.13

— US20230265116A1, “DEGRADATION OF (EGFR) BY CONJUGATION OF EGFR INHIBITORS WITH E3 LIGASE LIGAND AND METHODS OF USE” (BEIGENE, LTD., priority 2020, published 2023)
